Assay type in all cases: functional
Experiment [1] relates to Escherichia coli. The experiment in a line: Antimicrobial activity against Escherichia coli ATCC […] by microdilution assay. (In general: Broth dilution looks for growth in wells or tubes with falling amounts of substance.)
Experiment [2] has as its system Escherichia coli. As to the kind of experiment: Antimicrobial activity against Escherichia coli ATCC […] carrying Edwardsiella ictaluri pM07-1 by microdilution assay.
Experiment [3] has as its system Edwardsiella ictaluri. As to the kind of experiment: Antimicrobial activity against florfenicol-resistant Edwardsiella ictaluri M07-1 by microdilution assay.
Experiment [4] concerns Edwardsiella ictaluri. As to the kind of experiment: Fold resistance, ratio of MIC for florfenicol-resistance Edwardsiella ictaluri M07-1 to MIC for florfenicol-susceptible Edwardsiella ictaluri.

The MIC is the lowest concentration that inhibits growth of the organism.

In brackets after ≈: the same amount, converted by molar mass. A value given as a limit tells only on which side of the number the result lay.

Turning to `CC1(C)S[C@@H]2[C@H](NC(=O)[C@H](N)c3ccc(O)cc3)C(=O)N2[C@H]1C(=O)O` [AMOXICILLIN], the MIC was 4 mg/L (≈ 10.9 µM) with Escherichia coli [1], above 32 mg/L against Escherichia coli [2] and above 32 mg/L against Edwardsiella ictaluri [3].

Take `CC1(C)S[C@@H]2[C@H](NC(=O)[C@H](N)c3ccccc3)C(=O)N2[C@H]1C(=O)O` [AMPICILLIN]: the values for the MIC against Escherichia coli [1], against Escherichia coli [2] and with Edwardsiella ictaluri [3] were 4 mg/L (≈ 11.4 µM), above 32 mg/L and above 32 mg/L, respectively.

As to `CO[C@@]1(NC(=O)Cc2cccs2)C(=O)N2C(C(=O)O)=C(COC(N)=O)CS[C@@H]21` [CEFOXITIN], the figures for the MIC in the experiment on Escherichia coli [1], in the experiment on Escherichia coli [2] and against Edwardsiella ictaluri [3] were 4 mg/L (≈ 9.36 µM), above 32 mg/L and above 32 mg/L, respectively.

As to `CO/N=C(\C(=O)N[C@@H]1C(=O)N2C(C(=O)O)=C(CSC(=O)c3ccco3)CS[C@H]12)c1csc(N)n1` [CEFTIOFUR], the MIC with Escherichia coli [1] was 0.5 mg/L (≈ 0.955 µM); in the experiment with Escherichia coli [2], above 8 mg/L; in the experiment with Edwardsiella ictaluri [3], 8 mg/L (≈ 15.3 µM).

Turning to `CO/N=C(\C(=O)N[C@@H]1C(=O)N2C(C(=O)O)=C(CSc3nc(=O)c(O)nn3C)CS[C@H]12)c1csc(N)n1` [CEFTRIAXONE], the MIC with Escherichia coli [1] was below 0.25 mg/L; against Escherichia coli [2], 32 mg/L (≈ 57.7 µM); in the experiment on Edwardsiella ictaluri [3], 32 mg/L (≈ 57.7 µM).

`O=C(N[C@H](CO)[C@H](O)c1ccc([N+](=O)[O-])cc1)C(Cl)Cl` [CHLORAMPHENICOL]: the values for the MIC with Escherichia coli [1], in the experiment with Escherichia coli [2] and in the experiment on Edwardsiella ictaluri [3] were 4 mg/L (≈ 12.4 µM), above 32 mg/L and above 32 mg/L, respectively.

`O=C(O)[C@H]1/C(=C/CO)O[C@@H]2CC(=O)N21` [CLAVULANIC ACID]: the MIC in the experiment on Escherichia coli [1] was 2 mg/L (≈ 10 µM); with Escherichia coli [2], 16 mg/L (≈ 80.3 µM); against Edwardsiella ictaluri [3], 16 mg/L (≈ 80.3 µM).

Consider `CS(=O)(=O)c1ccc([C@@H](O)[C@@H](CF)NC(=O)C(Cl)Cl)cc1` [FLORFENICOL], for which the minimal inhibitory concentration (MIC) in the experiment on Escherichia coli [1] worked out at 4 mg/L (≈ 11.2 µM); in the experiment with Escherichia coli [2], 256 mg/L (≈ 715 µM); in the experiment with Edwardsiella ictaluri [3], 128 mg/L (≈ 357 µM). Besides, the Ratio in the experiment with Edwardsiella ictaluri [4] was 500.

On to `CN[C@@H]1[C@H](O[C@H]2[C@H](O[C@H]3[C@H](O)[C@@H](O)[C@H](N=C(N)N)[C@@H](O)[C@@H]3N=C(N)N)O[C@@H](C)[C@]2(O)C=O)O[C@@H](CO)[C@H](O)[C@H]1O` [STREPTOMYCIN], for which the MIC with Escherichia coli [1] is below 32 mg/L; in the experiment on Escherichia coli [2], above 64 mg/L; against Edwardsiella ictaluri [3] it was above 64 mg/L.

For `Cc1cc(NS(=O)(=O)c2ccc(N)cc2)no1` [SULFAMETHOXAZOLE], the MIC against Escherichia coli [1] came out at 2.4 mg/L (≈ 9.48 µM); against Escherichia coli [2] it was 19 mg/L (≈ 75 µM); with Edwardsiella ictaluri [3], 19 mg/L (≈ 75 µM).

Regarding `CN(C)[C@@H]1C(O)=C(C(N)=O)C(=O)[C@@]2(O)C(O)=C3C(=O)c4c(O)cccc4[C@@](C)(O)[C@H]3C[C@@H]12` [TETRACYCLINE], the values for the MIC with Escherichia coli [1], with Escherichia coli [2] and against Edwardsiella ictaluri [3] were 4 mg/L (≈ 9 µM), 32 mg/L (≈ 72 µM) and 32 mg/L (≈ 72 µM), respectively.

Consider `COc1cc(Cc2cnc(N)nc2N)cc(OC)c1OC` [TRIMETHOPRIM], for which the values for the MIC with Escherichia coli [1], against Escherichia coli [2] and in the experiment on Edwardsiella ictaluri [3] were 0.1 mg/L (≈ 0.344 µM), 1 mg/L (≈ 3.44 µM) and 1 mg/L (≈ 3.44 µM), respectively.

The values above are taken from ChEMBL document CHEMBL1629617, “IncA/C plasmid-mediated florfenicol resistance in the catfish pathogen Edwardsiella ictaluri” (2009).
